Patent US20250250613A1, “DISCOVERY OF BACTERIAL AIEGEN THAT LIGHTS UP SPECIFIC G-QUADRUPLEXES” (Southern Marine Science and Engineering Guangdong …, priority 2024, published 2025)

Tests used:
G4s in HeLa cells = assay: Confocal cell imaging, co-localization with G4-specific antibody BG4; assay type: cell-based, human
Experimental: HeLa cells were seeded onto a 12-well plate with coverslips at 37° C. and 5% CO2 for 1 day and incubated with HMPQ at 10 μM overnight. The next day, cells were fixed with 4% paraformaldehyde for 15 min at room temperature and then permeabilized with 0.2% Triton X-100 in PBS for another 10 min. G4-specific antibodies BG4 (Sigma-Aldrich, cat. no. MABE 1126) were added at 1:500 dilution for staining and incubated overnight at 4° C. Cells were washed three times with PBS and then incubated with secondary antibodies (Alexa 647 anti-rabbit for G4) at 1:1000 dilution for 1 h at room temperature. After washing the cells with PBS three times to remove excess secondary, the cells were incubated with DAPI for 5 min and washed with PBS once. The cells on slides were then air dried, mounted onto a Hydromount medium, and observed using a Leica SP8 confocal microscope.

c-kit2 G4 = assay: CD spectroscopy of c-kit2 G4 with HMPQ; assay type: binding
Experimental: (§1) CD spectra of G4s with HMPQ were recorded on a Chirascan CD spectrometer at room temperature from 220 nm to 320 nm under liquid mode. A 1 mm-path-length quartz cuvette was used with a 400 μL sample. Each G4 sample was prepared at the same concentration of 15 μM. The compound was mixed with G4s at a molar ratio of 1:10. Each test was scanned three times, and the background of the buffer was subtracted.

HeLa cells = assay: Cytotoxicity assay (thiazolyl blue tetrazolium bromide), HeLa; assay type: cell-based, human; conditions: even at 100 μM, 24 h
Experimental: (§2) HEK293 and HeLa cells were purchased from ATCC, and HT22 cells were purchased from Sigma-Aldrich. They were cultured in Dulbecco's modified Eagle's medium (Thermo Fisher Scientific, 11965092) with 10% fetal bovine serum (Thermo Fisher Scientific, 26140079) and 1% penicillin-streptomycin at 37° C. in a humidified incubator with 5% CO2. After 1 day of cell culture, cells were seeded onto 96-well plates with a density of 5000 cells in each well and cultured for another 24 h. Then, HMPQ with different concentrations was added and treated for 24 h. After incubating with 20 μL of thiazolyl blue tetrazolium bromide (5 mg/mL in PBS buffer; Sigma-Aldrich) for 4 h, supernatants were removed, and 100 μL of DMSO was added to dissolve formazan. After shaking for 5 min in darkness, a Multiskan FC microplate was used to measure absorbance at 570 nm.

c-myc G4 = assay: CD spectroscopy of c-myc G4 with HMPQ; assay type: binding
Experimental: as §1

HEK293 cells = assay: Cytotoxicity assay (thiazolyl blue tetrazolium bromide), HEK293; assay type: cell-based, human; conditions: even at 100 μM, 24 h
Experimental: as §2

[1] = test system: regular double-stranded or single-stranded, or hairpin-structure nucleotides; assay: Photoluminescence and NMR titration with non-G4 oligonucleotides; assay type: binding
Text: Conventional fluorescent probes rely on hydrophobic aromatic rings and π-conjugated chromophores^22. However, their tendency to aggregate in hydrophobic pockets upon binding to nucleic acid strands in aqueous environments often results in the quenching of emitted light. Conversely, AIEgens excel in aqueous media, evading aggregation-caused quenching. […] In embodiments, binding to G4s restricts the mobility of HMPQ molecules, leading to a significant enhancement in fluorescence intensity. CD spectra confirm that HMPQ maintains the original conformation of G4s and its high biocompatibility enables visualization of G4s within the cellular nucleus.
To verify whether the compounds interacted with G4 DNA, we performed NMR titration experiments by running 1D ^1H NMR spectra at 25° C. All compounds were dissolved in isotope-labelled d6-DMSO (from Sigma-Aldrich) at about 50 mM concentration as stock solutions. To avoid chemical shifts of G4 samples resulting from d6-DMSO addition, 10 μL of d6-DMSO was added into 500 μL of 0.1 mM G4 solution in the NMR buffer (20 mM potassium phosphate buffer and 70 mM KCl, pH 7.0, 10% D2O). Then, a 1D ^1H-NMR spectrum was obtained as a reference. […]
In addition to fluorescence spectroscopy tests, we performed NMR titration as another prevalent method for assessing binding affinity. […]

[2] = Absolute quantum yield of HMPQ in different states; assay type: physicochemical; conditions: for Quantum Yield (%): excitation 320 nm
Experimental: Streptomyces chrestomyceticus BCC24770 was acquired from the Thailand Bioresource Research Centre. All oligonucleotides used were bought from Integrated DNA Technologies company (Singapore). NMR spectra were recorded on a 500 M or 800 M Varian spectrometer at 25° C. HRMS data were recorded on a Xevo G2-XS QTOF mass spectrometer from Water's. HPLC analysis or preparation was performed using a Waters HPLC system (Waters 2695 Separations Module; Milford, USA) and monitored under a Waters 2998 Photodiode Array Detector. Semi-preparative HPLC was performed using a Phenomenex Luna C18 column (250 mm×10 mm in size) and designed for a particle size of 5 μm. Single-crystal XRD data were collected on a Rigaku-Oxford Diffraction Supernova Dual Atlas diffractometer. Crystal photos were taken under Nikon ECLIPSE Ts2R fluorescence microscopes. CD spectra were collected using Chirascan Circular Dichroism (CD) Spectrometers. UV-vis absorption spectra were obtained under a Shimadzu UV-2600 spectrophotometer (medium scanning rate and quartz cuvettes of 2 cm path length). Photoluminescence spectra were recorded on an Edinburgh FS5 Spectrofluorometer. Absolute quantum yield was collected using an integrating sphere on a Hamamatsu Quantum Yield Spectrometer C11347 Quantaurus. All digital photographs were recorded on a Canon EOS 7D camera. A Leica SP8 confocal microscope was used for cell imaging.
After observing the strong emission of crystalline-state HMPQ, we studied its photophysical properties in a polymer matrix. HMPQ was dissolved and blended with the common polymer poly(methyl methacrylate) (PMMA)^39. A series of films was prepared by coating mixtures with varying weight percentages (wt %) of HMPQ onto a quartz substrate. The resulting films, containing different wt % of HMPQ, were analysed to measure their photoluminescence (PL) and quantum yield (QY) (FIGS. 3A-3D and 14, Table 2).

[3] = test system: immortalized mouse hippocampal neuronal cells HT22; assay: Cytotoxicity assay (thiazolyl blue tetrazolium bromide), HT22; assay type: cell-based; conditions: even at 100 μM, 24 h
Experimental: as §2

[4] = test system: c-kit2 (SEQ ID NO: 3) DNA G4; assay: Photoluminescence test of HMPQ with c-kit2 G4 (turn-on, Stern-Volmer plot, LOD); assay type: binding
Experimental: Single DNA nucleotides were purchased from Integrated DNA Technologies. The DNA sample at 100 μM (single strands) was then re-annealed by heating to 95° C. for 15 min, followed by slow cooling to room temperature overnight in an annealing buffer of 70 mM KCl and 20 mM potassium phosphate (pH 7.0). The final NMR samples contained 0.1 mM DNA or RNA in 20 mM potassium phosphate buffer (pH 7.0) and 70 mM KCl.
The intriguing conformational change observed in HMPQ led to exceptional emission performance, prompting us to explore its application as a fluorescent probe. The inherent two-planar aromatic rings of HMPQ offer the potential for interaction with the guanine tetrad or conjugation with side chains of novel nucleic acid secondary structures, G4s^45,46. To evaluate the binding affinity of HMPQ, a series of photoluminescence tests was conducted using various G4 samples introduced with HMPQ (Table 5).
To delve deeper into the sensitivity of HMPQ as a fluorescent G4 probe, the PL spectra of HMPQ (0.15 mM) were obtained with varying concentrations of c-kit2, as illustrated in FIG. 5B. […] According to the equation for limit of detection (LOD), LOD=3 SB/m (SB=the standard deviation of the repeated 10 blank measurements, and m=the slope of the relative intensity over […]), it was calculated as 28.7 nM^49,50. […]

c-kit1 G4 = assay: CD spectroscopy of c-kit1 G4 with HMPQ; assay type: binding
Experimental: as §1

## CCC(=O)c1ccc(OC)c(-c2nc3ccccc3c(=O)[nH]2)c1O [HMPQ, 2-(2-hydroxy-6-methoxy-3-propionylphenyl)quinazolin-4(3H)-one]
G4s in HeLa cells; BG4 as control
  penetration of the cell nucleus: efficiently penetrated the cell nucleus
G4s in HeLa cells; FIG. 6C legend
  Overlap coefficient: 0.943
G4s in HeLa cells; HMPQ 10 μM overnight
  overlap coefficient with BG4: 94.3%
c-kit2 G4
  effect on original G4 conformation (CD spectrum): non-disruptive
HeLa cells
  cytotoxicity: no cytotoxicity
c-myc G4
  effect on original G4 conformation (CD spectrum): non-disruptive
HEK293 cells
  cytotoxicity: no cytotoxicity
[1]
  interaction with non-G4 nucleotides: no interaction
[2]; 30 wt % film (HMPQ in PMMA)
  QY: 30.5%
[2]; Film, 1 wt. % HMPQ in PMMA
  Quantum Yield (%): 25.5%
[2]; Film, 5 wt. % HMPQ in PMMA
  Quantum Yield (%): 27.9%
[2]; Film, 10 wt. % HMPQ in PMMA
  Quantum Yield (%): 29.4%
[2]; Film, 20 wt. % HMPQ in PMMA
  Quantum Yield (%): 30.5%
[2]; Film, 40 wt. % HMPQ in PMMA
  Quantum Yield (%): 30.0%
[2]; Film, 60 wt. % HMPQ in PMMA
  Quantum Yield (%): 27.1%
[2]; Film, 100 wt. % HMPQ
  Quantum Yield (%): 23.0%
[2]; In DMSO Solution, 10^−5 M
  Quantum Yield (%): 6.7%
[2]; In THF Solution, 10^−5 M
  Quantum Yield (%): 2.4%
[2]; Solid Powder
  Quantum Yield (%): 3.9%
[3]
  cytotoxicity: no cytotoxicity
[4]; 20 mM KH2PO4 buffer, 70 mM KCl, pH 7.0
  fluorescence enhancement at 497 nm upon interaction with c-kit2: around 300 fold
[4]; HMPQ 0.15 mM, c-kit2 0 μM to 50 μM
  Stern-Volmer constant m: 1.94e+06 M⁻¹
c-kit1 G4
  effect on original G4 conformation (CD spectrum): non-disruptive
